Test results published in patent US5885767A (BioCatalytics, Inc., priority 1998, dated 1999).
Read-outs that look alike come from different tables or passages of the source.

How the values were obtained:
[1] = target: T1, methionine gamma-lyase from Pseudomonas putida ICR 3460 (Pseudomonas putida, UniProt P13254); parameters: methionine gamma-lyase purified from Pseudomonas putida ICR 3460; host or cells: Pseudomonas putida ICR 3460 (enzyme purified from the organism itself); settings: cited from earlier work; for Vmax as a substrate for methionine gamma-lyase: maximum velocity at saturating substrate concentrations; for Km / Vmax: purified enzyme from Pseudomonas putida ICR 3460
T1 sequence (P13254 1-398): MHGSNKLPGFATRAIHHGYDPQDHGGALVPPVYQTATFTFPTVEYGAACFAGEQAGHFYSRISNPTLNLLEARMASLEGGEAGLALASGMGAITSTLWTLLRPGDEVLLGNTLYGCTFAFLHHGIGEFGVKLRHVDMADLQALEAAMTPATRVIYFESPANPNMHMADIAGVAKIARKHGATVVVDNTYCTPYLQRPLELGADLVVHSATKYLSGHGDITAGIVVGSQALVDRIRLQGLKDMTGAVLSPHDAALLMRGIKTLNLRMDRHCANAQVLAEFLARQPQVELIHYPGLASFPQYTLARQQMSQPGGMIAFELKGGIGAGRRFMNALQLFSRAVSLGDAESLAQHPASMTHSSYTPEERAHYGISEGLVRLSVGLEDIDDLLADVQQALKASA

[2] = target: T2, methionine gamma-lyase (Pseudomonas putida, UniProt P13254); settings: cited from earlier work; for inhibition of methionine gamma-lyase (in words): at concentrations between 0.1 mM and 10 mM
T2 sequence (P13254 1-398): T1 sequence (P13254 1-398)

[3] = target: T1, methionine gamma-lyase from Pseudomonas putida ICR 3460
Description: The 2-ketobutyrate produced in the reaction is quantitated by reaction with lactic dehydrogenase and NADH, and the rate of decrease in the absorbance at 340 nm is monitored.
Stock solutions for the coupled spectrophotometric assay are prepared as follows:
Potassiumphosphate buffer, 100 mM, pH 8.0 containing 0.01 mM pyridoxal 5'-phosphate
NADH in deionized water, 5 mg/ml
Lactate dehydrogenase, crystalline suspension from rabbit muscle in 3.2M ammonium sulfate containing 9.6 mg protein/ml, with a specific activity of 800-1200 units per milligram (Sigma)
The assay mixture is prepared as follows:
A background reading of the absorbance at 340 nm was made. Enzyme solution (10 microliters, appropriately diluted to produce a change of absorbance at 340 nm between 0.1 and 1 absorbance unit per minute) is then added, and the rate of decrease in the absorbance at 340 nm is measured using a spectrophotometer.
One unit of methionine gamma-lyase activity is that amount of enzyme that causes the oxidation of 1 micromole of NADH per minute at room temperature under the assay conditions described above.

SMILES	activity as a substrate of methionine gamma-lyase (in words) [1]	inhibition of methionine gamma-lyase by thiol compounds (in words) [2]	inhibition of methionine gamma-lyase (in words) [2]	also measured
O[C@H](CS)[C@@H](O)CS [dithioerythritol]	not acted on by the enzyme	nor do they inhibit the enzyme	–	–
CSCC[C@H](N)C(=O)O [L-methionine]	excellent substrates	–	–	Vmax as a substrate for methionine gamma-lyase [1]: about 20 micromoles per minute per milligram of pure protein; Km [1]: ≤ 1000 µM; Vmax [1]: 20.4 µmol/min/mg; Km ([1]; listed as L-Methionine): 1000 µM; specific activity of purified methionine gamma-lyase ([3]; L-methionine as substrate, room temperature, pH 8.0, 1 unit = 1 micromole NADH oxidized per minute): approximately 20 units per milligram
N[C@@H](CCS)C(=O)O [L-homocysteine]	excellent substrates	–	–	Vmax as a substrate for methionine gamma-lyase [1]: 36 micromoles per minute per milligram of pure protein; Km [1]: ≤ 1000 µM; Vmax [1]: 36 µmol/min/mg; Km ([1]; listed as L-Homocysteine): 430 µM; activity of the purified methionine gamma-lyase ([3]; L-homocysteine as substrate at a concentration of 2.5 mM): approximately 36 units per milligram
N[C@@H](CS)C(=O)O [L-cysteine]	low activity	–	–	–
C[C@@H](O)[C@H](N)C(=O)O [L-Threonine]	either very poor substrates or do not react at all	–	Nor do these amino acids inhibit methionine gamma-lyase appreciably	–
N[C@@H](Cc1c[nH]c2ccccc12)C(=O)O [L-tryptophan]	either very poor substrates or do not react at all	–	Nor do these amino acids inhibit methionine gamma-lyase appreciably	–
N[C@@H](CCO)C(=O)O [L-homoserine]	either very poor substrates or do not react at all	–	Nor do these amino acids inhibit methionine gamma-lyase appreciably	–
O[C@H](CS)[C@H](O)CS [dithiothreitol]	not acted on by the enzyme	nor do they inhibit the enzyme	–	–
N[C@@H](Cc1ccc(O)cc1)C(=O)O [L-tyrosine]	either very poor substrates or do not react at all	–	Nor do these amino acids inhibit methionine gamma-lyase appreciably	–
N[C@@H](CO)C(=O)O [L-serine]	either very poor substrates or do not react at all	–	Nor do these amino acids inhibit methionine gamma-lyase appreciably	–
CC(=O)S [thioacetic acid]	not acted on by the enzyme	nor do they inhibit the enzyme	–	–
OCCS [β-mercaptoethanol]	not acted on by the enzyme	nor do they inhibit the enzyme	–	–
